SMILES strings stand for the structures. “Also recorded” adds a separate entry of the source. Like-named read-outs stand apart in the source and are kept apart here.

Data set [1] relates to elastase-like activity in HL-60 lysates. Description: Inhibition of elastase-like activity in HL-60 lysates. It counts as biochemical, human. The settings on record: 1 mM, 1 h, 37 °C. The text has this: (§1) For the quantification and characterization of HNE-like activity in cell lysates, the density of the sample cell suspension was first quantified using a CASY-1 cell counter.

The target in the next data set is T1, HNE in U937 lysates (Homo sapiens, UniProt P08246).
T1 construct: the myeloid cell line U937, which can differentiate into neutrophils [25] and expresses HNE; host or cells: U937 (histiocytic lymphoma), undifferentiated
T1 sequence (P08246 30-247 limits assumed): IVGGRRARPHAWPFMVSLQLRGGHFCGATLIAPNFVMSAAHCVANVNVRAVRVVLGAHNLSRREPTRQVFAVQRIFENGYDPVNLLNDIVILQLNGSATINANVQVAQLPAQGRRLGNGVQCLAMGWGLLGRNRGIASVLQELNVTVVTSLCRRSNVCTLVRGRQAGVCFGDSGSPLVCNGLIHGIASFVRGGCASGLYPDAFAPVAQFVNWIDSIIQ
Description: Inhibition of HNE activity in U937 lysates. It is filed as biochemical. Here is the method:
as §1
(§2) To determine the inhibition constants of reversible inhibitors with isolated HNE and HNE in cell lysates, HNE (0.5 nM) and U937 lysates (1000 cells/µL) were incubated with serial dilutions of the compounds in assay buffer at 37 °C for ≥ 1 h. Subsequently, residual HNE activity was measured as described above and compared to the activity of uninhibited HNE. […] The inhibition curves generated were fitted to Morrisons’s equation to obtain the dissociation equilibrium constant Ki with pro-Fit (Quantum Soft, Uetikon am See, Switzerland) using a Levenberg–Marquardt algorithm.

In data set [2] the test system is U937 cells. Description: Proliferation of U937 cells. It counts as cell-based, human. The following applies: concentrations ≥300 µM.
Description: U937 cells were plated in sterile 96-U-well plates (92697, TPP, Trasadingen, Switzerland) at a density of 100 cells/µL in a cell culture medium (180 µL per well). Increasing concentrations of inhibitors and solvent controls were diluted in a culture medium and added (20 µL/well) to the 96-well plate 26 h, 6 h, 3 h, and 0 h before harvesting and lysing the cells (see below). Plates were kept at 37 °C, 5% CO2, and 95% humidity throughout the incubation period.
Data set [3] relates to U937 cells. Description: LDH release from U937 cells. It is filed as cell-based, human. The following applies: 1000 and 300 µM, after 26 h. Here is the method:
Cytotoxicity of the inhibitors was determined by analyzing the release of lactate dehydrogenase (LDH) into the cell culture medium using the LDH cytotoxicity kit II (PromoKine, Heidelberg, Germany) or the more sensitive Pierce LDH cytotoxicity assay kit (Thermo Scientific, Darmstadt, Germany) following the manufacturer’s instructions.

Another data set addresses T2, isolated HNE (Homo sapiens, UniProt P08246).
T2 construct: immediately processed to its active form in the trans-Golgi before being targeted to azurophil granules; purchased Merck (Darmstadt, Germany) 324681
T2 sequence (P08246 30-267): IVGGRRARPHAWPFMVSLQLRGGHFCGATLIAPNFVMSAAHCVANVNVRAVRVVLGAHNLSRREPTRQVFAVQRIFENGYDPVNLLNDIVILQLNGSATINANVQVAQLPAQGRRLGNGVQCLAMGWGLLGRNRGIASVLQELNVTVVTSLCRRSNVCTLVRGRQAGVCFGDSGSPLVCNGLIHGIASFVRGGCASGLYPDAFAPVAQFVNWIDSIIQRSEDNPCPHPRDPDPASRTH
Kind of data set: Formation and dissociation of the HNE/inhibitor complex (pre-steady-state kinetics). The following applies: pre-steady-state kinetics, HNE 0.6 nM, 37 °C, mean ± SD. It is filed as biochemical. Here is the method: To determine the association rates (kon) of the inhibitors, the enzymatic activity of HNE (0.6 nM) was recorded continuously in an SFM25 fluorometer (Biotek Kontron, Neufahrn, Germany) by following the cleavage of MeOSuc-AAPV-AMC (10 µM) at 37 °C. When a constant rate was established (i.e., after 1–5 min), an inhibitor was added, and the reaction followed for up to 60 min. The pseudo-first-order rate constant kobs was obtained by fitting the observed presteady-state progress curve to the integrated equation of Morrison with pro-Fit. Apparent second-order rate constants were subsequently calculated as k2/Ki = kobs/It by linear regression from several independent experiments using a range of concentrations. For reversible inhibitors, the dissociation rate koff was subsequentially calculated as koff = Ki × kon; for irreversible inhibitors, koff is ≈ zero. Finally, the halftime of the HNE/inhibitor complex formation and dissociation were calculated as t1/2,on = 0.693/(kass × It + koff) and t1/2,off = 0.693/koff, respectively.

A short description of data set [4]: Inhibitor stability in serum-free cell culture medium. It counts as physicochemical. The following applies: 26 h, serum-free medium (RPMI), 37 °C. Here is the method: Inhibitors were prepared as above and incubated for 26 h in RPMI at 37 °C. Residual inhibitor activity was compared to the activity of freshly prepared compounds by measuring the inhibition of HNE.

Data set [5] deals with T3, isolated HNE (human neutrophil elastase) (Homo sapiens, UniProt P08246).
T3 construct: immediately processed to its active form in the trans-Golgi before being targeted to azurophil granules; purchased Merck (Darmstadt, Germany) 324681
T3 sequence (P08246 30-267): T2 sequence (P08246 30-267)
Kind of data set: Inhibition of isolated HNE, steady-state kinetics (MeOSuc-AAPV-AMC). It counts as biochemical. Here is the method:
as §2

Another data set addresses T4, HNE in U937 cells (Homo sapiens, UniProt P08246).
T4 construct: the myeloid cell line U937, which can differentiate into neutrophils [25] and expresses HNE; host or cells: U937 (histiocytic lymphoma), undifferentiated
T4 sequence (P08246 30-247 limits assumed): T1 sequence (P08246 30-247 limits assumed)
Description: Intracellular HNE inhibition in cultured U937 cells (residual activity in lysates). It counts as cell-based.

The target of data set [6] is T3, isolated HNE (human neutrophil elastase). Kind of data set: Inhibition of isolated HNE, steady-state kinetics (MeOSuc-AAPV-AMC). It is filed as biochemical. The settings on record: read-out: IC50(60min), isolated HNE; irreversible inhibitors, incubated 1 h, logistic fit, mean ± SD.
The target in data set [7] is T5, elastase-like activity (HNE) in PMN lysates (Homo sapiens, UniProt P08246).
T5 construct: from tissue; host or cells: neutrophil granulocytes from peripheral venous blood of healthy human donors
T5 sequence (P08246 30-247 limits assumed): T1 sequence (P08246 30-247 limits assumed)
Kind of data set: Inhibition of elastase-like activity in PMN lysates. It is filed as biochemical. The following applies: 1 mM, 1 h, 37 °C.
From the text: Residual erythrocytes were eliminated by hypotonic lysis.
as §1

The target in a further data set is T6, HNE in mature PMN (Homo sapiens, UniProt P08246).
T6 sequence (P08246 30-247 limits assumed): T1 sequence (P08246 30-247 limits assumed)
Kind of data set: Intracellular HNE inhibition in freshly isolated mature PMN. The settings on record: read-out: IC50, HNE in PMN; 1 h incubation.

Description for HNE in U937 cells: (§3) The enzymatic activity of HNE was measured using a fluorescence-based assay in 96-well black bottom plates (Corning®, 003916, New York, NY, USA). HNE (0.5 nM) or cell lysates (20 µL, ~100 PMN/µL, ~1000 U937/µL, ~5000 HL-60/µL or ~1000 HMC-1/µL) were diluted in assay buffer (200 mM TRIS HCl, 500 mM NaCl, 0.05% Tween-20, pH 8.0). […] AMC (7-Amino-4-methylcoumarin) standard curves were generated by measuring serial dilutions of the fluorophore AMC (1 µM–0 µM) in assay buffer on the same plate and used to calculate nM AMC generation from fluorescence measurements.
(§4) U937 cells were plated in sterile 96-U-well plates (92697, TPP, Trasadingen, Switzerland) at a density of 100 cells/µL in a cell culture medium (180 µL per well). Increasing concentrations of inhibitors and solvent controls were diluted in a culture medium and added (20 µL/well) to the 96-well plate 26 h, 6 h, 3 h, and 0 h before harvesting and lysing the cells (see below). Plates were kept at 37 °C, 5% CO2, and 95% humidity throughout the incubation period. […] Similarly, freshly isolated PMN were plated at 50–100 cells/µL in PBS (1 g/L glucose) and incubated for 1 h with inhibitors or controls.
(§5) For cell lysis, cells were pelleted in the microtiter plates by centrifugation (400× g, 10 min, 4 °C) and washed three times in PBS (4 °C). Washed cells were then lysed by adding lysis buffer (PBS, 1 M NaCl, 0.1% Tween-20, pH 7.4) and freeze–thawing on dry ice. Finally, lysates were centrifuged (2100× g) to remove cell debris. Enzymatic activity of HNE was determined as described above, and residual activity present after incubation with inhibitors expressed as % of matched solvent controls.
Description for HNE in mature PMN: Peripheral venous blood was collected from six healthy donors after informed consent (votum 018-09 of the local ethics committee), and differential blood counts were performed. Neutrophil granulocytes were isolated using the MACSxpress neutrophil isolation kit (Miltenyi Biotec, Bergisch Gladbach, Germany) following the manufacturer’s instructions. Residual erythrocytes were eliminated by hypotonic lysis. Neutrophils were resuspended in PBS with glucose (1 g/L) at a density of 50–100 cells/µL. The purity of the final cell population was analyzed by staining a smear using Pappenheim’s method and counting ≥200 cells using a light microscope.
as §3, §4, §5

In the case of `Cl.NCCc1ccc(S(=O)(=O)F)cc1` [Pefabloc SC], the “inhibition of elastase-like activity in HL-60 lysate” value in data set [1] is 95 ± 1%. For the same compound, at HNE in U937 lysates (1 mM, 1 h, 37 °C), the “inhibition of elastase-like activity in U937 lysate” value came out at 91 ± 0.6%. Besides, the half-maximal inhibitory concentration (IC50) (as a rule, the midpoint of a concentration-inhibition curve) at HNE in U937 lysates (read-out: IC50(60min), U937 lysate, irreversible inhibitors, incubated 1 h, logistic fit, mean ± SD) was 130 µM; at HNE in U937 cells (0 h incubation, read-out: IC50, HNE in U937 cells at 0 h), around 100 µM; at HNE in U937 cells (intact U937 cells, time not specified, read-out: IC50, HNE in intact U937 cells), around 100 µM; at HNE in U937 cells (read-out: IC50, HNE in U937 cells at 6 h, 6 h incubation), around 10 µM; in [6] it was 130 µM; on HNE in mature PMN, around 100 µM. In the data set on U937 cells [2], the “reduction of U937 cell proliferation” value was 50 ± 3%. The “LDH release from U937 cells” value in the data set on U937 cells [3] was 12 ± 2%. For the same compound, at isolated HNE, the kon (commonly a measure of how fast the partners come together) is 1.0 ± 0.1 M⁻¹ s⁻¹. The “decrease of inhibitory activity after incubation in medium” value in data set [4] is listed as “approximately 50%”. In addition, the “inhibition of activity of isolated HNE” value in data set [5] (1 mM, 1 h, 37 °C, HNE 0.5 nM) came to 98 ± 0.6%. In addition, in [5] (at ~10^−3 M), the “inhibition of isolated HNE” value is “nearly complete inhibition”. Also, the “time course of HNE inhibition in U937 cells (in words)” value at HNE in U937 cells (0-26 h culture) is listed as “increases during the first 6 h; also recorded: lose effectiveness over time”. Further, the “inhibition of HNE in intact U937 cells” value on HNE in U937 cells (at ~10^−3 M) is given as “nearly complete inhibition”. Besides, the “inhibition of elastase-like activity in PMN lysate” value in data set [7] was 97 ± 0.6%.

The record behind these values is publication PMC11276905 (International Journal of Molecular Sciences, 2024).
